Measured values: the supplement of paper PMC8882468
± gives the standard deviation of the averaged measurements.

Experiments:
Experiment in all cases: CTG-3D luminescence at 96 h relative to day-0 seeding control (ratio to day 0); higher = more growth / less cytotoxicity; PDxO 3D drug screen, 96 h, CTG-3D normalised to day-0 seeding control.
HCI-010 = tested on: HCI-010 (organoid from a breast cancer xenograft)
HCI-019 = tested on: HCI-019 (organoid from a triple-negative breast cancer xenograft)
HCI-008 = tested on: HCI-008 (organoid from a HER2-enriched breast cancer xenograft)
HCI-016 = tested on: HCI-016 (organoid from a triple-negative breast cancer xenograft)
HCI-027 = tested on: HCI-027 (organoid from a triple-negative breast cancer xenograft)
HCI-025 = tested on: HCI-025 (organoid from a breast cancer xenograft)

CCN(c1cc(C#CCN2CCOCC2)cc(C(=O)NCc2c(C)cc(C)[nH]c2=O)c1C)[C@H]1CC[C@H](N(C)CCOC)CC1
CTG-3D luminescence at 96 h
Settings | 12.5 pM | 0.00025 µM | 0.005 µM | 0.1 µM | 1 µM | 10 µM | 100 µM | 625 fM
HCI-008, days in culture: 228 | 1.54 ± 0.067 | 1.571 ± 0.015 | 1.283 ± 0.0089 | 1.61 ± 0.1 | 1.59 ± 0.14 | 1.63 ± 0.48 | 1.43 ± 0.024 | 1.77 ± 0.43
HCI-008, days in culture: 244 | 1.38 | 2.13 | 1.81 | 2.04 | 1.7 | 2.31 | 2.04 | 2.47
HCI-010, days in culture: 52 | 1.83 | 2.5 | 2.34 | 2.47 | 2.48 | 2.29 | 1.5 | 2.03
HCI-010, days in culture: 65 | 1.6 | 1.76 | 1.72 | 1.49 | 1.78 | 1.58 | 1.05 | 1.8
HCI-010, days in culture: 103 | 3.17 | 3.22 | 3.07 | 3.35 | 3.09 | 2.84 | 1.88 | 2.7
HCI-016, days in culture: 153 | 2.92 | 1.14 | 2.22 | 1.64 | 2.25 | 2.06 | 1.5 | 3.1
HCI-016, days in culture: 172 | 2.13 | 2.17 | 1.72 | 1.56 | 2.1 | 1.64 | 1.52 | 1.33
HCI-016, days in culture: 190 | 2.02 | 1.67 | 1.75 | 1.5 | 1.73 | 1.62 | 1.56 | 1.36
HCI-016, days in culture: 199 | 1.74 | 2.22 | 2.22 | 1.86 | 2.01 | 1.95 | 2.02 | 2.09
HCI-019, days in culture: 110 | 2.05 | 1.49 | 1.58 | 2.08 | 1.81 | 2.75 | 2.01 | 2.28
HCI-019, days in culture: 131 | 2.63 | 3.96 | 3.07 | 3.21 | 1.98 | 2.33 | 0.501 | 3.23
HCI-019, days in culture: 152 | 2.5 | 4.04 | 2.16 | 1.89 | 2.77 | 1.9 | 0.188 | 2.36
HCI-025, days in culture: 172 | 2.86 | 2.03 | 3.74 | 2.35 | 2.66 | 1.89 | 2.28 | 2.74
HCI-025, days in culture: 209 | 2.08 | 3.04 | 2.37 | 1.7 | 2.53 | 1.47 | 1.54 | 2.18
HCI-025, days in culture: 218 | 1.66 | 1.66 | 1.76 | 1.73 | 1.43 | 2.1 | 1.58 | 1.76
HCI-027, days in culture: 176 | 2.06 | 2.13 | 3.35 | 1.65 | 1.87 | 2.06 | 1.32 | 2.38
HCI-027, days in culture: 194 | 2.66 | 1.86 | 2.09 | 2.1 | 2.03 | 2.21 | 2.02 | 1.98
HCI-027, days in culture: 201 | 3.28 | 3.2 | 2.92 | 2.89 | 3.09 | 2.64 | 2.22 | 2.42

CC1(C)CCC(c2ccc(Cl)cc2)=C(CN2CCN(c3ccc(C(=O)NS(=O)(=O)c4ccc(N[C@H](CCN5CCOCC5)CSc5ccccc5)c(S(=O)(=O)C(F)(F)F)c4)cc3)CC2)C1 [navitoclax]
CTG-3D luminescence at 96 h
Settings | 12.5 pM | 0.00025 µM | 0.005 µM | 0.1 µM | 1 µM | 10 µM | 100 µM | 625 fM
HCI-008, days in culture: 228 | 1.53 ± 0.19 | 1.62 ± 0.11 | 1.55 ± 0.025 | 1.61 ± 0.51 | 1.2 ± 0.38 | 0.854 ± 0.092 | 0.0594 ± 0.064 | 1.77 ± 0.16
HCI-008, days in culture: 244 | 1.31 | 1.99 | 1.94 | 2.06 | 1.57 | 0.824 | 0.0293 | 2.52
HCI-010, days in culture: 52 | 2.01 | 2.27 | 2.15 | 0.695 | 0.0507 | 0.0304 | 0.0084 | 2.13
HCI-010, days in culture: 65 | 1.61 | 1.66 | 1.65 | 0.573 | 0.026 | 0.0135 | 0.00305 | 1.8
HCI-010, days in culture: 103 | 3.2 | 3.28 | 3.13 | 1.08 | 0.0477 | 0.0368 | 0.0191 | 2.7
HCI-016, days in culture: 153 | 3.08 | 1.54 | 2.11 | 1.77 | 1.76 | 0.105 | 0.000169 | 3.01
HCI-016, days in culture: 172 | 2.29 | 2.07 | 1.85 | 1.43 | 1.55 | 0.931 | 0.00877 | 1.68
HCI-016, days in culture: 190 | 2.07 | 1.62 | 1.9 | 1.65 | 1.46 | 1.1 | 0.0887 | 1.24
HCI-016, days in culture: 199 | 2.03 | 2.16 | 2.22 | 1.82 | 2.1 | 0.827 | 0.0061 | 1.99
HCI-019, days in culture: 110 | 1.8 | 1.8 | 1.56 | 1.84 | 0.469 | 0.538 | 0.0111 | 2.31
HCI-019, days in culture: 131 | 2.39 | 3.6 | 3.23 | 2.91 | 1.25 | 0.358 | 0.0147 | 3.96
HCI-019, days in culture: 152 | 2.86 | 2.49 | 3.21 | 1.89 | 0.769 | 0.582 | 0.00119 | 2.39
HCI-025, days in culture: 172 | 3.28 | 1.84 | 2.93 | 0.781 | 0.555 | -0.249 | -0.109 | 2.63
HCI-025, days in culture: 209 | 1.95 | 2.53 | 2.24 | 1.27 | 1.81 | 0.666 | 0.00258 | 2.29
HCI-025, days in culture: 218 | 1.36 | 1.87 | 1.59 | 1.15 | 0.81 | 0.293 | 0.0152 | 1.91
HCI-027, days in culture: 176 | 2.47 | 2.17 | 3.4 | 1.89 | 2.39 | 1.32 | -0.194 | 3.28
HCI-027, days in culture: 194 | 2.18 | 1.78 | 2.01 | 2.17 | 2.24 | 1.75 | 0.198 | 2.27
HCI-027, days in culture: 201 | 3.21 | 2.62 | 3.27 | 3.18 | 2.73 | 1.5 | 0.0321 | 2.76

CCc1c2c(nc3ccc(O)cc13)-c1cc3c(c(=O)n1C2)COC(=O)[C@]3(O)CC [SN-38]
CTG-3D luminescence at 96 h
Settings | 12.5 pM | 0.00025 µM | 0.005 µM | 0.1 µM | 1 µM | 10 µM | 100 µM | 625 fM
HCI-008, days in culture: 228 | 1.72 ± 0.38 | 1.6 ± 0.048 | 0.948 ± 0.27 | 0.349 ± 0.04 | 0.21 ± 0.049 | 0.132 ± 0.11 | 0.111 ± 0.082 | 1.93 ± 0.54
HCI-008, days in culture: 244 | 1.28 | 1.83 | 1.31 | 0.575 | 0.202 | 0.12 | 0.119 | 2.23
HCI-010, days in culture: 52 | 2.37 | 2.36 | 0.389 | 0.0916 | 0.0768 | 0.267 | 0.243 | 2.19
HCI-010, days in culture: 65 | 1.69 | 1.69 | 0.379 | 0.115 | 0.0812 | 0.317 | 0.334 | 0.54
HCI-010, days in culture: 103 | 3.57 | 3.27 | 0.516 | 0.116 | 0.145 | 0.599 | 0.576 | 2.96
HCI-016, days in culture: 153 | 2.8 | 1.73 | 1.68 | 0.253 | 0.0495 | 0.0432 | 0.0259 | 2.02
HCI-016, days in culture: 172 | 2.16 | 2.11 | 1.21 | 0.157 | 0.0512 | 0.021 | 0.019 | 1.22
HCI-016, days in culture: 190 | 1.83 | 1.12 | 1.17 | 0.151 | 0.0473 | 0.0272 | 0.0195 | 1.25
HCI-016, days in culture: 199 | 1.87 | 1.62 | 1.36 | 0.126 | 0.0472 | 0.0229 | 0.0167 | 1.92
HCI-019, days in culture: 110 | 1.82 | 1.78 | 0.471 | 0.295 | 0.238 | 0.127 | 0.0625 | 2.53
HCI-019, days in culture: 131 | 3.04 | 2.79 | 0.948 | 0.312 | 0.308 | 0.107 | 0.169 | 3.56
HCI-019, days in culture: 152 | 3.21 | 3.38 | 1.51 | 0.48 | 0.521 | 0.106 | 0.0856 | 2.26
HCI-025, days in culture: 172 | 3.42 | 1.7 | 2.12 | 0.486 | 0.295 | 0.0768 | 0.0418 | 2.35
HCI-025, days in culture: 209 | 1.97 | 2.36 | 1.12 | 0.295 | 0.181 | 0.0722 | 0.0384 | 1.53
HCI-025, days in culture: 218 | 1.5 | 1.73 | 0.75 | 0.244 | 0.0898 | 0.0616 | 0.0407 | 1.53
HCI-027, days in culture: 176 | 1.94 | 1.79 | 1.19 | 0.371 | 0.104 | 0.0345 | 0.0407 | 1.74
HCI-027, days in culture: 194 | 1.81 | 1.39 | 0.614 | 0.307 | 0.0805 | 0.0428 | 0.0357 | 1.66
HCI-027, days in culture: 201 | 2.6 | 2.5 | 0.717 | 0.272 | 0.0912 | 0.0373 | 0.029 | 2.46
